Values joined by “and” are separate entries in the source; they are usually repeats but may differ in a detail not shown here. Equal values may be shown once. “Also recorded” adds a separate entry of the source.
Assays:
Aβ40 aggregates [1] = biological target: T1, Aβ40 aggregates (Homo sapiens, UniProt P05067); assay: Binding affinity of ADLumin-1 with Aβs (fluorescence titration); conditions: ADLumin-1 250 nM, Aβ40 aggregates 0 to 8 μM, fluorescence at 515 nm
Target sequence in this assay (P05067 672-711 limits assumed): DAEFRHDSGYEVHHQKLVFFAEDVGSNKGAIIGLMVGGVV

[2] = biological target: Aβ aggregates in mouse brain homogenate (Homo sapiens, UniProt P05067); assay: In vitro chemiluminescence study in brain homogenate; format: binding
Chain of Aβ aggregates in mouse brain homogenate (P05067 672-711 limits assumed): as above

[3] = Oxygen sensitivity of ADLumin-1; format: physicochemical
Protocol: (§1) Oxygen and ROS sensitivity of ADLumin-1: A 100.0 μL DMSO solution of ADLumin-1 (200.0 μM) was added to a well in a 96-well plate. One group was bubbled with oxygen for 5 seconds at different time points, and the control group was sealed without bubbling. Once the bubbling was over, the plate was subjected to chemiluminescence intensity recording with the IVIS system with the open filter setting (500 nm-840 nm). For ROS tests, A PBS solution (240 μL) was incubated in an Eppendorf tube. To each of above tubes, different ROS (H2O2 30 μL, […] 30 μL, TBHP 30 μL and KO2 30 μL) was added, respectively. Then, a solution of ADLumin-1 in DMSO (30 μL, 250.0 μM) was added. Finally, 100.0 μL of the resulting solution was transferred into a well of 96-well plate, and triplicated samples were prepared. Chemiluminescence images were obtained with an IVIS system under the open filter (500 nm-840 nm).

[4] = ROS sensitivity of ADLumin-1; format: physicochemical; conditions: H2O2, ClO4−, TBHP, KO2; compared to O2 bubbling
Protocol: as §1

Aβ plaques [5] = biological target: T2, Aβ plaques (Homo sapiens, UniProt P05067); assay: In vitro histological study (brain slice staining); conditions: 5×FAD mouse brain slice incubated with ADLumin-1
T2 sequence (P05067 672-713 limits assumed): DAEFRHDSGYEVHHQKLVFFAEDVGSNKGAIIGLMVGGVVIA
Protocol: In vitro histological study: a fresh brain tissue from a 24-month old APP/PS1 mouse was fixed in 4% formaldehyde for 24 hours and transferred into 30% sucrose at 4° C. until the tissue sunk. Then the tissue was embedded in OCT with gradual cooling over dry ice. […] Then the slice was covered with FluoroShield mounting medium (Abcam) and sealed with nail polish.

Aβ plaques [6] = biological target: T2, Aβ plaques; assay: Ex vivo histological study; format: in vivo, 5×FAD mouse; conditions: mouse sacrificed after two-photon imaging
Protocol: The fresh brain tissue was fixed in 4% formaldehyde for 24 hours and transferred into 30% sucrose at 4° C. until the tissue sunk. Then the tissue was embedded in an OCT block, which was sectioned into 25-μm slice with a cryostat. Then the slice was covered with FluoroShield mounting medium (Abcam).

Aβs = Aβs (Homo sapiens, UniProt P05067); assay: In vivo chemiluminescence imaging with ADLumin-1; set-up: species or system 5×FAD mice
Chain of Aβs (P05067 672-713 limits assumed): as above
Protocol: The IVIS Spectrum animal imaging system (PerkinElmer) was used for in vivo imaging. Images were acquired with open filter or specific emission filters. […] Chemiluminescent signals from the eyes were recorded at 0 and 45 min after i.v. injection of the probe. Sequence images were captured at 15 min after probe injection with the following parameters: sequence filter from 500 nm to 840 nm with an interval of 20 nm; Exposure time is 30 s, FOV=D. […] To evaluate the imaging results, an ROI was drawn around the brain or the eye region. Student t-test was used to calculate P values.

Aβ40 aggregates [7] = biological target: T1, Aβ40 aggregates; assay: In vivo mimic demonstration of DAS-CRET; conditions: FIG. 8E, subcutaneous injection in nude mouse
Protocol: After solutions were prepared, one female 8-month old nude mouse was anesthetized, and the left hind limb was subcutaneously injected with the first solution and the right hind limbs was subcutaneously injected with the second solution. The mouse was then placed into the IVIS imaging chamber and images were captured from the dorsal side and from the ventral side with the open filter (500 nm-840 nm) and specific filters.
Target sequence in this assay (P05067 672-711): as the sequence (P05067 672-711 limits assumed) above

PA-K2 = assay: Chemiluminescence detection of model beta-sheet aggregates (PA-K2); format: binding
PA-E2 = assay: Chemiluminescence detection of model aggregates (PA-E2 vs PA-E); format: binding
prion = format: binding
insulin = biological target: T3, insulin (Homo sapiens, UniProt P01308); assay: Chemiluminescence with misfoldon aggregates in PBS (insulin); format: binding
T3 construct: immunoglobulin G (IgG), proinsulin, insulin, and apolipoprotein A-I (APO)
T3 sequence (P01308 25-54 limits assumed, species assumed): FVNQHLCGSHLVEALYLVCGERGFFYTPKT
T3 sequence (P01308 90-110 limits assumed, species assumed): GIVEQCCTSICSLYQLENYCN

Tau = assay: Chemiluminescence with misfoldon aggregates in PBS (Tau); format: binding; conditions: ADLumin-1 2.5 μM, Tau aggregates 2.5 μM
[8] = biological target: Aβ40 aggregates, monomers and oligomers in human serum (Homo sapiens, UniProt P05067); assay: Chemiluminescence of Aβ40 species incubated with non-diluted human serum
Chain of Aβ40 aggregates, monomers and oligomers in human serum (P05067 672-711 limits assumed): as the sequence (P05067 672-711 limits assumed) above

Immunoglobulin G (IgG) = assay: Aβ aggregates incubated with IgG
Apolipoprotein A-I (APO) = Apolipoprotein A-I (APO) (Homo sapiens, UniProt P02647); assay: Aβ aggregates incubated with APO
Chain of Apolipoprotein A-I (APO) (P02647 25-267): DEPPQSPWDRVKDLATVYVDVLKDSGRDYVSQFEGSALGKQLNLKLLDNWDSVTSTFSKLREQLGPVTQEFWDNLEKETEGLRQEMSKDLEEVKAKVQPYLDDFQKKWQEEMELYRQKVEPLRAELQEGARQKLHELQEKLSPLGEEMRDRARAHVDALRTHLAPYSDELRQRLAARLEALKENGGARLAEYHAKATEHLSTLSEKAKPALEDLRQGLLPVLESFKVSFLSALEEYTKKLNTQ

Transthyretin = Transthyretin (Homo sapiens, UniProt P02766); assay: Aβ aggregates incubated with transthyretin
[9] = system: beta-sheet misfoldons in patient serum; assay: Chemiluminescence detection of beta-sheet misfoldons in disease serum; set-up: species or system human
Protocol: Chemiluminescence detection beta-sheet misfoldons in disease serum by ADLumin-1: serum of AD patient contains abundant beta-sheet misfoldons that can be detected by ADLumin-1. ADLumin-1 (2.5 μM) was added to 100 μl non-diluted serum of AD patients, and serum from health control (HC) was used as the control. […] This is remarkable, since this difference is phenomenally large and is very useful for blood quality evaluation.
Misfolded beta-sheets are associated with various diseases, including brain disorders (e.g., neurodegenerative disorders) and periphery diseases, particularly chronic diseases. The patient sera of chronic diseases also contains abundant beta-sheet misfoldons. In this regard, patient sera of multiple sclerosis, diabetes, rheumatoid arthritis and pulmonary fibrosis patients was used in this example.

Q: Which results are given for `Cc1nc2c[nH]c(/C=C/C=C/c3ccc(N(C)C)cc3)cn-2c1=O` [ADLumin-1, 6-((1E,3E)-4-(4-(dimethylamino)phenyl)buta-1,3-dien-1-yl)-2-methylimidazo[1,2-a]pyrazin-3(7H)-one]?
A: Kd (Aβ40 aggregates [1]): 2.1 µM; Aβ concentration range with linear intensity increase [2]: 0 to 12.5 µM; chemiluminescence signal, Aβ group vs no Aβ ([2]; Aβ aggregates 12.5 μM): about 11.6 fold; response time to O2 [3]: within seconds; luminescence increase after stirring ([3]; ADLumin-1 DMSO solution): 3.4 fold; chemiluminescence intensity increase after O2 bubbling ([3]; DMSO solution, after first 5 seconds bubbling): 27 fold; chemiluminescence response towards ROS species [4]: no significant changes; also recorded: considerably low; also recorded: relatively small; signal to noise ratio (SNR) of plaques (Aβ plaques [5]): 2.93; brightness of plaques in brain slides (Aβ plaques [6]): considerably bright; chemiluminescence signal 5×FAD vs age-matched wild-type mice (Aβs; 5-month-old mice, summary statement): 1.80 fold; brain chemiluminescence signal difference 5×FAD vs WT (Aβs; 640 nm filter): 1.7 fold; brain chemiluminescence signal difference 5×FAD vs WT (Aβs; 15 minutes after i.v. injection, open filter): 1.7 fold; brain chemiluminescence signal difference 5×FAD vs WT (Aβs; 30 minutes after i.v. injection, open filter): 1.8 fold; chemiluminescence signals from eyes 5×FAD vs WT (Aβs; mouse, in vivo): 1.6 fold; chemiluminescence signals from noses 5×FAD vs WT (Aβs; mouse, in vivo): 1.7 fold; SNR (ROI1/ROI2) (Aβ40 aggregates [7]): > 2000 and 2189; intensity ratio of PA-K2/PA-K (PA-K2): about 47.5 fold; low limit of detection (LOD) lower than that of ThT (PA-K2): 100 fold; chemiluminescence signal increase vs ADLumin-1 only in PBS (PA-K2; ADLumin-1 2.5 μM, PA-K2 0.5 mg/ml, PBS): 101 fold; peptide concentration range of concentration dependent intensity (PA-K2; PA-K2 and PA-E2): 0.001 to 1.0 mg/mL; peptide concentration at which PA-K and PA-K2 are differentiated (PA-K2; chemiluminescence): 0.001 mg/mL; ADLumin-1 concentration range of linear response (PA-K2; with 0.5 mg/ml PA-K2): 0.001 to 0.1 mg/mL; chemiluminescence intensity PA-E2 group vs PA-E group (PA-E2): 4.39 fold; largest chemiluminescence difference with aggregates (prion): 2.22 fold; signal decay T½ (prion): 11.36 min; largest chemiluminescence difference with aggregates (insulin; ADLumin-1 2.5 μM, insulin aggregates 2.5 μM, PBS): 10.8 fold; signal decay T½ (insulin; with insulin aggregates): > 60 min; largest chemiluminescence difference with aggregates (Tau): 7.02 fold; chemiluminescence ratio of the Aβ group and the control group ([8]; Aβ40 aggregate 2.5 μM): about 3.43 fold; chemiluminescence intensity Aβ group vs control group ([8]; Aβ monomers): 1.96 fold; chemiluminescence intensity Aβ group vs control group ([8]; Aβ oligomers): 1.71 fold; chemiluminescence intensity IgG/Aβ group vs IgG group (Immunoglobulin G (IgG); incubation 30 minutes): 1.81 fold; chemiluminescence intensity IgG/Aβ group vs IgG group (Immunoglobulin G (IgG); incubation 60 minutes): 1.71 fold; chemiluminescence intensity IgG/Aβ group vs IgG group (Immunoglobulin G (IgG); incubation 120 minutes): 2.55 fold; intensity Aβ/APO group vs control group (Apolipoprotein A-I (APO)): higher intensity; intensity Aβ/transthyretin group vs control group (Transthyretin): higher intensity; chemiluminescence signal AD serum vs HC serum ([9]; ADLumin-1 2.5 μM, 100 μl non-diluted serum): > 50 fold and 52.2 fold; chemiluminescence signal disease serum vs HC control ([9]; diabetes serum): 44.7 fold; chemiluminescence signal disease serum vs HC control ([9]; multiple sclerosis serum): 34.9 fold; chemiluminescence signal disease serum vs HC control ([9]; pulmonary fibrosis serum): 16.6 fold; chemiluminescence signal disease serum vs HC control ([9]; rheumatoid arthritis serum): 29.3 fold
